Where two headings read alike, the source gives them in different places. Blank lines part the entries; values can stand above or below the compound they belong to.
Columns and labels:
human NNMT (mt-hNNMT) = molecular target: T1, human NNMT (mt-hNNMT) (Homo sapiens, UniProt P40261, E101A/E103A/K100A); assay: NNMT activity assay (HPLC-UV detection of MNA), NNMT IC50 curves; conditions: for IC50: NI = no observable inhibition
T1 sequence (P40261 1-261 K100A/E101A/E103A limits assumed): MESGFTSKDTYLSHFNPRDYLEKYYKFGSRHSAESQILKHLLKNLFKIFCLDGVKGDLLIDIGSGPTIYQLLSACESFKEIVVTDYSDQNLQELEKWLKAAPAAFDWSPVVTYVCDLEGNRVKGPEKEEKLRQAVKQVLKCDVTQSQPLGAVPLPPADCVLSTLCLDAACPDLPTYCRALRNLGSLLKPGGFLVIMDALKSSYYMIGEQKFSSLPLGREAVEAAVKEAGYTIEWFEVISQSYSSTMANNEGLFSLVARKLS

[1] = Parallel artificial membrane permeability assay (PAMPA); assay type: in vitro ADME; conditions: for Papp at 4 h, 400 μM: read-out: Flux; for Permeability Classification (passive transport): BCS classification
Experimental: Samples were tested in triplicates in three separate experiments.

[2] = tested on: NNMT activity in 3T3-L1 pre-adipocytes and differentiated adipocytes; assay: Quantitative measurement of NNMT reaction product 1-MNA in cultured cells (LC/MS/MS); assay type: cell-based; conditions: 10 μM, 24 h
Experimental: Differentiation of 3T3-L1 pre-adipocytes. […] Briefly, standard culture media was supplemented with scheduled addition of adipogenic agents [3-isobutyl-1methyl xanthine (IBMX), Sigma Aldrich; MO, USA), dexamethasone (Sigma Aldrich; MO, USA), insulin (Gibco Life Technologies Inc.; Grand Island, N.Y., USA)] over 10 days to promote differentiation of 3T3-L1 fibroblasts into adipocytes; a combination of 1 mM IBMX, 1 μM dexamethasone, and 10 μg/ml of insulin in media were added to fully confluent 3T3-L1 fibroblasts for three days (days 0-3) to initiate differentiation. At day 3, the media was replaced with culture media supplemented with insulin (10 μg/ml). After day 6, cells were maintained in culture media until described experiments were begun (days 8-10).
Cellular 1-MNA concentrations were determined using an ultra-sensitive high-resolution AB Sciex 6500 Q-trap mass spectrometer coupled to an Agilent 1260 ultra-high pressure liquid chromatography (LC/MS/MS) system. Using multiple reaction monitoring (MRM) positive ion mode, the 1-MNA NNMT reaction product was quantified from peak area ratios using AB Sciex Analyst and MultiQuant 2.1 software and the parent precursor and Q3 masses set to m/z 137.1 and 94.1, respectively. Fragment ions at m/z of 92.1 and 77.9 were additionally used for the detection and confirmation of 1-MNA, respectively. […]. To determine the effect of NNMT inhibitor on NNMT activity in the pre-adipocytes and differentiated adipocytes (8×10^4 cells/well seeded prior to beginning differentiation), cells were treated with 30 μM inhibitor for 24 h. Similarly, to compare the relative effects of multiple NNMT inhibitors on NNMT activity in cultured adipocytes, differentiated adipocytes in 6-well plates were treated with 10 μM test compound for 24 h. Following treatment, media was replaced with 80% (v/v) methanol (cooled to −80° C.) containing 500 nmol 6-chloronicotinamide (6-CN) as an internal standard (IS) to extract cellular metabolites. Adherent cells were scrapped, then centrifuged at 4° C. and 13000 g for 15 min, and the resulting supernatants processed using established protocols. […]. Data were subsequently normalized to the IS peak area and transformed as % control values for cross-sample comparisons. […] Choice of inhibitor concentrations and time period was chosen based on the results from the MTT studies.

[3] = tested on: 3T3-L1 pre-adipocytes cells; assay: MTT cell viability assay; assay type: cell-based; conditions: 3T3-L1 pre-adipocytes, 24 h
Experimental: Cells were treated for 24 h with 0.1-600 μM NNMT inhibitors in cell culture media. A 24 h time point was chosen based on a previous report of using this time period for transfecting or treating 3T3-L1 cells with NNMT anti-sense oligonucleotides or a small molecule NNMT product inhibitor (1-MNA), respectively, for phenotypic measures. MTT (3-(4,5-dimethylthiazol-2-yl)-2,5-diphenyltetrazolium bromide) (ATCC; Manassas, Va., USA) was added to each well and assayed according to the manufacturer's instructions. Absorbance corresponding to the amount of formazan dye produced by treated cells was normalized to that produced by control (untreated) cells to calculate % viable cells in the treated samples.

[4] = Bi-directional permeability assay with Caco-2 cells; conditions: human
Caco-2 cells = assay: as above; conditions: Caco-2
[5] = molecular target: recombinant human NAMPT enzyme (Homo sapiens, UniProt P43490); assay: NAMPT activity assay (fluorometric); assay type: biochemical; conditions: concentrations between 30 and 600 μM (data not shown)
[6] = molecular target: recombinant human PRMT3 enzyme (Homo sapiens, UniProt O60678); assay: PRMT3 activity assay (radiometric); assay type: biochemical; conditions: NC: not calculable (no significant inhibition); read-out: IC50, Protein arginine methyltransferase 3
From the text: Test compounds were screened in biochemical assays for activity against three structurally similar methyltransferases, including catechol-O-methyltransferase (COMT), DNA (cytosine-5)-methyltransferase 1 (DNMT1), and protein arginine methyltransferase 3 (PRMT3). Additional biochemical assays were used to test the ability of compounds to inhibit nicotinamide phosphoribosyl transferase (NAMPT) and NAD+-dependent protein deacetylase sirtuin 1 (SIRT1), two enzymes in the NAD+ biosynthesis/salvage pathway. All assays were performed by Reaction Biology Corporation (RBC; Malvern, Pa., USA) and complete assay details are noted below. For each test compound, IC50 values were calculated from dose-response curves established with 10 concentrations of a half-log dilution series. For each assay, established enzyme specific inhibitors were included as positive controls for enzyme function and assay reproducibility. IC50 values were determined by non-linear least-squares fitting of a 4-parameter dose-response curve to collected data points (Graphpad Prism 7.0; La Jolla, Calif., USA).
PRMT3 activity assay. […] The analogues, 1,8-diMQ and 5-amino-1MQ were tested at concentrations from 200 μM-10 nM and 600 μM-10 nM, respectively. Reactions were performed with 5 μM histone H3 (histone L-arginine) substrate, 1 μM radiolabeled S-adenosyl-L-[methyl-3H]methionine (SAM) co-substrate, and recombinant human PRMT3 enzyme. Activity was monitored via quantification of radiolabeled reaction product histone [methyl-3H]-L-arginine.

[7] = NNMT Inhibition IC50, mean ± SD of duplicate or triplicate measurements
[8] = 400 μM in PBS, 4 h, room temperature

recombinant human PRMT3 enzyme, sequence (O60678 whole entry): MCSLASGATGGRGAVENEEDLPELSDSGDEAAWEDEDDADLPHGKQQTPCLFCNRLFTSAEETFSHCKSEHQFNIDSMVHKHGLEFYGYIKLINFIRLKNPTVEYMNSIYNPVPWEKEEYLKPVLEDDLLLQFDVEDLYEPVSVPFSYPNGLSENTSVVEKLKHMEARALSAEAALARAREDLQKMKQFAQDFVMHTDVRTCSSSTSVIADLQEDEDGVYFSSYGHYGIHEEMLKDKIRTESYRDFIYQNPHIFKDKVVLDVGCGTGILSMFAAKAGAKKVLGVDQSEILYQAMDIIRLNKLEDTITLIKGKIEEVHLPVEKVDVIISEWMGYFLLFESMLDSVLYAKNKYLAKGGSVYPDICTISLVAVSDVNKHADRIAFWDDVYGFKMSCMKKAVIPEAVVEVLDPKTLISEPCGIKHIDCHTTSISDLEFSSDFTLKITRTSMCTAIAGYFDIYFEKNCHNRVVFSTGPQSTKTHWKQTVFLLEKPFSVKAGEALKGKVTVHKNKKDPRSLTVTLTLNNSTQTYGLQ
recombinant human NAMPT enzyme, sequence (P43490 whole entry): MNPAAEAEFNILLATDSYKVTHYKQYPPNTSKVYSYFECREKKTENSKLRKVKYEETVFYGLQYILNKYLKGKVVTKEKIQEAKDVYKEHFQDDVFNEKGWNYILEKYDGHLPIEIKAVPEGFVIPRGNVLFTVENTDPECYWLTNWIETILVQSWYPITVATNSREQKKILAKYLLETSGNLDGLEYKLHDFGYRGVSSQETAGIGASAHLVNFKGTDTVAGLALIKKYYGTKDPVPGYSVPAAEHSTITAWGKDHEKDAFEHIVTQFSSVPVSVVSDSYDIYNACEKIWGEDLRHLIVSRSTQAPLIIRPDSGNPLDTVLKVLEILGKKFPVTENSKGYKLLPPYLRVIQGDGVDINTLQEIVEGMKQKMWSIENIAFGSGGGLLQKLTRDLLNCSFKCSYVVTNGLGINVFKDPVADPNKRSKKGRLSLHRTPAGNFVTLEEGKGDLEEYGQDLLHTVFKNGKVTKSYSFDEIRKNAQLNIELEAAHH

SMILES: CC(C(=O)c1ccc(Br)cc1)[n+]1cccc2ccccc21 (stereo not drawn) [1v]
IC50 (human NNMT (mt-hNNMT); [7]): > 1000 µM

IC50 (human NNMT (mt-hNNMT); [7]): > 1000 µM
SMILES: O=C1C2CC=C(Cl)CC2C(=O)N1CCC[n+]1cccc2ccccc21 (stereo not drawn) [1w]

IC50 (human NNMT (mt-hNNMT); [7]): 8.7 ± 2.6 µM
SMILES: CC[n+]1ccc(C)c2ccccc21 [2a]

IC50 (human NNMT (mt-hNNMT); [7]): 3.1 ± 1.4 µM
SMILES: CC[n+]1cccc2cccc(C)c21 [2b]

IC50 (human NNMT (mt-hNNMT); [7]): 33.5 ± 9.9 µM
SMILES: Cc1cc[n+](CCO)c2ccccc12 [2c]

IC50 (human NNMT (mt-hNNMT); [7]): 40.6 ± 13 µM
SMILES: CC(=O)C[n+]1cccc2cccc(O)c21 [2d]

SMILES: OC(CBr)C[n+]1cc(Br)cc2ccccc21 (stereo not drawn) [2e]
IC50 (human NNMT (mt-hNNMT); [7]): > 1000 µM

IC50 (human NNMT (mt-hNNMT); [7]): > 1000 µM
SMILES: CCC[n+]1cccc2cc(C)ccc21 [2f]

SMILES: CC(=O)C[n+]1cccc2cc(Cl)ccc21 [2g]
IC50 (human NNMT (mt-hNNMT); [7]): > 1000 µM

SMILES: CC(=O)C[n+]1cccc2cc(O)ccc21 [2h]
IC50 (human NNMT (mt-hNNMT); [7]): > 1000 µM

SMILES: Cc1ccc2c(ccc[n+]2CC(=O)c2ccccc2)c1 [2i]
IC50 (human NNMT (mt-hNNMT); read-out: NNMT Inhibition IC50, mean ± SD of duplicate or triplicate measurements): > 1000 µM

SMILES: C[n+]1cc(N)cc2cc(F)ccc21 [2j, 3-amino-6-fluoro-1-methylquinolin-1-ium]
Papp at 4 h, 400 μM [1, 8]: 1.08 ×10⁻⁶ cm/s
Permeability Classification (passive transport) [1]: Moderate permeability
1-MNA levels in differentiated adipocytes relative to control [2]: significantly decreased
inhibitory activity against NNMT (in words) (human NNMT (mt-hNNMT)): inhibitory activity
IC50 (human NNMT (mt-hNNMT); [7]): 1.2 ± 0.2 µM

SMILES: Cc1ccc(C(F)(F)F)c2ccc[n+](C)c12 [2k]
inhibitory activity against NNMT (in words) (human NNMT (mt-hNNMT)): inhibitory activity
IC50 (human NNMT (mt-hNNMT); [7]): 87 ± 26.1 µM

SMILES: C[n+]1ccc(Cl)c2cccc(C(F)(F)F)c21.O=S(=O)([O-])C(F)(F)F [2l, 4-chloro-1-methyl-8-(trifluoromethyl)quinolin-1-ium Trifluoromethanesulfonate]
inhibitory activity against NNMT (in words) (human NNMT (mt-hNNMT)): inhibitory activity
IC50 (human NNMT (mt-hNNMT); [7]): > 1000 µM

SMILES: C[n+]1c(N)c(N)cc2ccccc21 [2m]
Papp at 4 h, 400 μM [1, 8]: 3.9 ×10⁻⁶ cm/s
Permeability Classification (passive transport) ([1]; listed as 2,3-diamine-1MQ): High permeability
Permeability Classification (passive transport) ([1]; listed as 2,3-diamino-1MQ): high passive permeability
cell viability ([3]; 300 μM): did not impact cell viability
cytotoxicity ([3]; 600 μM (highest concentration tested)): ~40%
1-MNA levels in differentiated adipocytes relative to control [2]: significantly decreased
efflux ratio at 2 h, 10 μM ([4]; Caco-2): 4.03
Papp A→B at 2 h, 10 μM ([4]; Caco-2, pH 7.4): 5.27 ×10⁻⁶ cm/s
Papp B→A at 2 h, 10 μM ([4]; Caco-2, pH 7.4): 21.2 ×10⁻⁶ cm/s
Classification (active transport / efflux) (Caco-2 cells; listed as 2,3-diamine-1MQ): Moderate permeability
Classification (active transport / efflux) (Caco-2 cells; listed as 2,3-diamino-1MQ): moderate bi-directional active transport with moderate efflux ratio
inhibitory activity against NNMT (in words) (human NNMT (mt-hNNMT)): inhibitory activity
IC50 (human NNMT (mt-hNNMT); [7]): 2.8 ± 0.5 µM

IC50 (human NNMT (mt-hNNMT); [7]): > 1000 µM
SMILES: Cc1ccc2c(ccc(C)[n+]2C)c1 [2n]

inhibition of NAMPT (in words) [5]: no inhibition
SMILES: C[n+]1cccc2c(N)c(F)ccc21 [5-amino-6-fluoro-1MQ]

Flux [1, 8]: 3.39e-05 cm/s
Permeability Classification (passive transport) [1]: High permeability
SMILES: c1ccc2ncccc2c1 [Quinoline]

Classification (active transport / efflux) (Caco-2 cells): Low permeability
SMILES: CNC(=C[N+](=O)[O-])NCCSCc1ccc(CN(C)C)o1 [Ranitidine, reference compound]

IC50 [6]: 6.6 ± 1.2 µM
SMILES: Nc1ncnc2c1ncn2[C@@H]1O[C@H](CSCC[C@H](N)C(=O)O)[C@@H](O)[C@H]1O [SAH, S-adenosylhomocysteine, reference compound]

From patent US11401243B2, “Quinoline derived small molecule inhibitors of nicotinamide N-methyltransferase (NNMT) and uses thereof” (priority 2017, dated 2022)
